Test results taken from ChEMBL document CHEMBL4251688, “Allosteric Modulators of Nicotinic Acetylcholine Receptors Useful for the Treatment of Cognitive Impairment” (ACS Med Chem Lett, 2018).

target: Neuronal acetylcholine receptor subunit alpha-7 (Homo sapiens, UniProt P36544); experiment: Positive allosteric modulation of human alpha 7 nAChR expressed in HEK cells co-expressing human RIC3 assessed as increase in acetylcholine-induced channel current at holding potential of -60 mV incubated for 58 secs followed by acetylcholine treatment for 1 sec by patch clamp electrophysiology assay; format: cell-based
Sequence (P36544 whole entry): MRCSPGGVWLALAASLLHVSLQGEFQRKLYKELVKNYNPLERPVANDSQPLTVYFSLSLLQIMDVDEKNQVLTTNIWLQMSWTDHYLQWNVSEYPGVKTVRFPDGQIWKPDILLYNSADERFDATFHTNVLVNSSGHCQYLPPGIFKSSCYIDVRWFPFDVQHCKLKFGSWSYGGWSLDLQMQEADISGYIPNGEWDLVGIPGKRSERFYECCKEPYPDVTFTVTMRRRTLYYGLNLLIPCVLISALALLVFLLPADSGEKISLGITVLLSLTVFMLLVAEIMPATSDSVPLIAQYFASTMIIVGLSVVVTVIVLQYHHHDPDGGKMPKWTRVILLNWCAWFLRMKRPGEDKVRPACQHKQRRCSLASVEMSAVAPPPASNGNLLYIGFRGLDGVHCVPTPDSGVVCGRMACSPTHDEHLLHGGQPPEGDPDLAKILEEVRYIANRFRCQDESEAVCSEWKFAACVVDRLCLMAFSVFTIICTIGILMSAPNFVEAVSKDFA

| EC50 [nM] | Compound |
| --- | --- |
| 98 | CC1(C)[C@@H](c2ccc(S(N)(=O)=O)cc2)[C@@H]1c1noc(C2CC(F)(F)C2)n1 |
| 93 | CC(Oc1cccc(Cl)c1)c1nc([C@H]2[C@H](c3ccc(S(N)(=O)=O)cc3)C2(C)C)no1 (stereo not given in full) |

Second part, the molecule before the results:

| Compound | EC50 [nM] |
| --- | --- |
| CC1(C)[C@@H](c2ccc(S(N)(=O)=O)cc2)[C@@H]1c1noc(-c2ccc(F)cc2)n1 | 93 |
| CC1(C)[C@@H](c2ccc(S(N)(=O)=O)cc2)[C@@H]1c1noc(C2CCCC2)n1 | 69 |
| NS(=O)(=O)c1ccc([C@H]2[C@H](c3noc(-c4ccccc4)n3)C2(F)F)cc1 | 83 |
